Assays:
[1] = tested on: Brassica napus microspores; experiment: Microspore embryogenesis in liquid half-strength NLN medium with different osmotica; format: cell-based, Brassica napus L. cv. Topas; conditions: for Induction of MD embryos: within two weeks, 13% sucrose, 8% mannitol or 25% PEG 4000 (w/v), mannitol and PEG media with about 0.08%-0.1% sucrose
Method: A mixed population consisting of microspores from mid- and late-uninucleate stages to young bicellular pollen was isolated from the flower buds using a protocol modified from that described by Ferrie and Keller, in: Gamborg and Phillips (eds) Plant Cell, Tissue and Organ Culture, Fundamental methods, pp 155-164, 1993 (Springer Verlag). For each treatment, twelve surface-sterilized buds (3.6-4.2 mm in length) were macerated in 5 ml half-strength B5 washing medium (Gamborg et al., Exp. Cell Res. 50:151-158, 1968) containing 13% sucrose (w/v) in 50 ml beakers. The crude suspension was filtered through 44 μm Nytex nylon mesh, both beakers and meshes were rinsed, and a total of 20 ml was collected into 50 ml centrifuge tubes and centrifuged at 150×g for 3 minutes. The pellets were resuspended in 5 ml of washing medium, the washing procedure was repeated twice, and the final supernatant was carefully pipetted out, leaving the pellet in approximately 0.3-0.4 ml of washing medium. Final resuspension was done by adding filter-sterilized half-strength NLN medium (Lichter, Z. Pflanzenphysiol. 105:427-434, 1982) containing 13% (w/v) sucrose as the control treatment; in the other two treatments, ½ NLN sucrose-free medium with 8% (w/v) mannitol or 25% (w/v) PEG 4000 (Fluka Chemika) was added, respectively. Therefore, the ½ NLN-mannitol and -PEG media contained only about 0.08%-0.1% sucrose, remaining from the washing medium.
Aliquots of […] of microspore suspension were plated into 10×15 mm sterile petri dishes, with an approximate plating density of 40,000 microspores/ml. Plates were first incubated at 35° C. for one hour followed by 33° C. for the next 14-18 hours and then placed on a shaker (50 rpm) in the dark at 24° C. for 14 days. During the first 8 days in culture, PEG and mannitol media were gradually diluted by adding to the plates an adequate volume of a simple ½ NLN medium, containing no sucrose. mannitol, or PEG, to give a final concentration of approximately 22% PEG and 7% mannitol. The concentration of sucrose in the control treatment was lowered the same way to a final concentration of 11%. After two weeks, plates with MD embryos were placed under light (16/8 hours photoperiod) at 24° C. for an additional week. Experiments dealing with mannitol as osmoticum were repeated three times with five replicates, while experiments dealing with PEG and sucrose as a control were repeated at least ten times with a minimum of three replicates.
Microspores at late unicellular stage and young bicellular pollen were isolated from the flower buds using a protocol for Brassica napus, modified from that described by Ferrie and Keller, in: Gamborg and Phillips (eds) Plant Cell, Tissue and Organ Culture, Fundamental methods, pp 155-164, 1993 (Springer Verlag). Twelve surface-sterilized buds (3.6-4.2 mm in length) were macerated in a 50 ml beaker with 5 ml half-strength B5 washing medium (Gamborg et al., Exp. Cell Res. 50:151-158, 1968) containing 13% sucrose (w/v). The crude suspension was filtered through 44 μm nylon mesh and centrifuged at 150×g for 3 minutes, and the pellet was resuspended in 5 ml of washing medium. The washing procedure was repeated twice, and the final supernatant was carefully pipetted out, leaving the pellet in approximately 0.3-0.4 ml of washing medium. Final resuspension was done by adding filter-sterilized half-strength NLN medium (Lichter, Z. Pflanzenphysiol 105:427-434, 1982) containing either 13% sucrose (w/v) as a control or 25% (w/v) polyethylene glycol 4000 (Fluka Chemika). Therefore, the final ½ NLN-PEG medium contained only about 0.08%-0.1% sucrose, remaining from the washing medium.
Aliquots of 10 ml of the microspore suspension were plated into 10×15 mm sterile petri dishes, with an approximate plating density of 40,000 microspores/ml. Plates were first incubated at 35° C. for one hour followed by 33° C. for the next 14-18 hours and then placed on a shaker (50 rpm) in the dark at 24° C. for 14 days. […]

[2] = tested on: Brassica napus MD embryos; experiment: Conversion of three-week-old MD embryos into plantlets on hormone-free solid medium; format: cell-based; conditions: embryos grown on the named osmoticum
Method: Plates containing the embryos may then be placed under light at 24° C. for an additional week. Once placed under light, the embryos generally increase in size and become green quickly. Within one week under light, cotyledons are typically well-developed, often widely opened and dark green, and the embryos are morphologically similar to zygotic embryos dissected from ovules (see FIGS. 2A-2C). The three-week embryos may then be rinsed and transferred to culture containers containing a suitable medium, such as half-strength B5 medium containing 1% sucrose and no growth regulators. The conversion frequency is the percentage of MD embryos that develop roots, true leaves and a green color within 3-4 weeks. Aliquots of 10 ml of the microspore suspension were plated into 10×15 mm sterile petri dishes, with an approximate plating density of 40,000 microspores/ml. Plates were first incubated at 35° C. for one hour followed by 33° C. for the next 14-18 hours and then placed on a shaker (50 rpm) in the dark at 24° C. for 14 days. […] Conversion frequency (%) of sucrose- and PEG-cultured MD embryos was recorded based on presence of roots, appearance of first true leaves and green color of plantlets, with three replicates for each treatment.

SMILES	Embryo length at heart-shaped stage ([1]; SEM)	Embryo length at torpedo stage ([1]; SEM)	Proembryo size at globular-to-heart-shaped transition ([1]; about day 8, SEM)	Embryo length, cotyledonary stage ([1]; after two weeks in culture)	Starch grains and protein bodies in cotyledon stage embryos ([1]; light microscopy)	Morphology of three-week-old MD embryos compared with zygotic embryos (14 and 15 DPA) ([1]; three weeks, last week under light)	Induction of MD embryos [1]	Plantlet morphology after transfer to solid medium [2]	Cell divisions of microspores after heat shock treatment ([1]; mannitol solution)
OC[C@H]1O[C@@](CO)(O[C@H]2O[C@H](CO)[C@@H](O)[C@H](O)[C@H]2O)[C@@H](O)[C@@H]1O [sucrose]	approximately 300 μm	≥ 400 μm	150-250 μm	2-4 mm	abundant starch grains with no protein bodies	pale green, had elongated embryo axes and relatively small underdeveloped cotyledons	developed into embryos	hypocotyls were short, often thick (hyperhydrated) and aberrant	–
OC[C@@H](O)[C@@H](O)[C@H](O)[C@H](O)CO [mannitol]	–	–	–	–	–	–	yielded no embryos	–	no divisions were observed
